Measurements published in the NIST ThermoML archive (doi:10.1021/je4009415).
± gives the expanded uncertainty stated by the source.

Legend:
[1] = Liquid; for mass density: Vibrating tube method; for vapor or sublimation pressure: Ebulliometric method (Recirculating still)
[2] = refractive index (Na D-line) (dimensionless); conditions: 298.15 K; 101.33 kPa; Liquid; Standard Abbe refractometry
[3] = xn = mol fraction of the nth substance listed; conditions: Liquid, Vibrating tube method, x2 = 0

CCCCCCCCC [nonane]
[1]
Conditions | mass density [kg/m3] | vapor or sublimation pressure [kPa]
288.15 K | 721.65 ± 0.24 | –
298.15 K | 713.85 ± 0.24 | –
308.15 K | 705.96 ± 0.25 | –
318.15 K | 698.06 ± 0.25 | –
328.15 K | 690.17 ± 0.25 | –
423.9 K | – | 101.32 ± 0.51

Conditions | refractive index
[2] | 1.4032 ± 0.0005

CCC(=O)OC [methyl propanoate]
[1]
Conditions | mass density [kg/m3] | vapor or sublimation pressure [kPa]
288.15 K | 921.21 ± 0.89 | –
298.15 K | 909.1 ± 0.88 | –
308.15 K | 896.91 ± 0.86 | –
318.15 K | 884.71 ± 0.84 | –
328.15 K | 872.22 ± 0.83 | –
335.15 K | – | 55 ± 0.13
336.38 K | – | 57.5 ± 0.14
337.53 K | – | 60 ± 0.15
338.61 K | – | 62.5 ± 0.15
339.76 K | – | 65 ± 0.16
340.79 K | – | 67.5 ± 0.16
341.81 K | – | 70 ± 0.17
342.79 K | – | 72.5 ± 0.17
343.75 K | – | 75 ± 0.18
344.68 K | – | 77.5 ± 0.18
345.59 K | – | 80 ± 0.19
346.49 K | – | 82.5 ± 0.19
347.35 K | – | 85 ± 0.2
348.2 K | – | 87.5 ± 0.21
349.03 K | – | 90 ± 0.21
349.83 K | – | 92.5 ± 0.22
350.62 K | – | 95 ± 0.22
352.34 K | – | 100 ± 0.23
352.72 K | – | 101.32 ± 0.24
352.75 K | – | 101.32 ± 0.61
353.81 K | – | 105 ± 0.24
355.23 K | – | 110 ± 0.26
356.53 K | – | 115 ± 0.27
357.87 K | – | 120 ± 0.28
359.16 K | – | 125 ± 0.29
360.42 K | – | 130 ± 0.3
361.65 K | – | 135 ± 0.31
362.8 K | – | 140 ± 0.32
363.97 K | – | 145 ± 0.33
365.05 K | – | 150 ± 0.35
366.15 K | – | 155 ± 0.36
367.22 K | – | 160 ± 0.37
368.27 K | – | 165 ± 0.38
369.26 K | – | 170 ± 0.39
370.25 K | – | 175 ± 0.4
371.22 K | – | 180 ± 0.41
372.2 K | – | 185 ± 0.42
373.12 K | – | 190 ± 0.43
374.01 K | – | 195 ± 0.45
374.9 K | – | 200 ± 0.46
375.77 K | – | 205 ± 0.47
376.63 K | – | 210 ± 0.48
377.52 K | – | 215 ± 0.49
378.3 K | – | 220 ± 0.5
379.14 K | – | 225 ± 0.51
379.96 K | – | 230 ± 0.52
380.72 K | – | 235 ± 0.53
381.51 K | – | 240 ± 0.55
382.25 K | – | 245 ± 0.56
383.03 K | – | 250 ± 0.57
383.74 K | – | 255 ± 0.58
384.47 K | – | 260 ± 0.59
385.21 K | – | 265 ± 0.6
385.87 K | – | 270 ± 0.61
386.61 K | – | 275 ± 0.62
387.28 K | – | 280 ± 0.64

Conditions | refractive index
[2] | 1.3743 ± 0.0007

CCCCC [pentane] + CCC(=O)OC
[3], 101 kPa
Conditions | mass density [kg/m3]
288.15 K | 630.78 ± 0.26
298.15 K | 620.91 ± 0.26

CCCCCCCCC [nonane] + CCC(=O)OC
[3]
Conditions | mass density [kg/m3]
288.15 K | 721.65 ± 0.24
298.15 K | 713.85 ± 0.24
308.15 K | 705.96 ± 0.25
318.15 K | 698.06 ± 0.25
328.15 K | 690.17 ± 0.25

CCCCCCC [heptane]
[1]
Conditions | mass density [kg/m3] | vapor or sublimation pressure [kPa]
288.15 K | 688.16 ± 0.25 | –
298.15 K | 679.62 ± 0.25 | –
308.15 K | 670.96 ± 0.25 | –
318.15 K | 662.33 ± 0.25 | –
328.15 K | 653.61 ± 0.25 | –
371.38 K | – | 101.32 ± 0.46

Conditions | refractive index
[2] | 1.3853 ± 0.0005

CCCCC [pentane] + CCOC(=O)CC
[3]
Conditions | mass density [kg/m3]
288.15 K | 630.78 ± 0.26
298.15 K | 620.9 ± 0.26

CCCCC [pentane]
[1]
Conditions | mass density [kg/m3] | vapor or sublimation pressure [kPa]
288.15 K | 630.78 ± 0.26 | –
298.15 K | 620.9 ± 0.26 | –
298.91 K | – | 70 ± 0.1
299.82 K | – | 72.5 ± 0.1
300.77 K | – | 75 ± 0.1
301.65 K | – | 77.5 ± 0.11
302.52 K | – | 80 ± 0.11
303.38 K | – | 82.5 ± 0.11
304.22 K | – | 85 ± 0.11
305.02 K | – | 87.5 ± 0.12
305.81 K | – | 90 ± 0.12
306.62 K | – | 92.5 ± 0.12
307.37 K | – | 95 ± 0.12
308.12 K | – | 97.5 ± 0.13
308.87 K | – | 100 ± 0.13
309.23 K | – | 101.32 ± 0.13
310.28 K | – | 105 ± 0.13
311.64 K | – | 110 ± 0.14
312.97 K | – | 115 ± 0.14
314.26 K | – | 120 ± 0.15
315.5 K | – | 125 ± 0.16
316.7 K | – | 130 ± 0.16
317.87 K | – | 135 ± 0.17
319.01 K | – | 140 ± 0.17
320.11 K | – | 145 ± 0.18
321.17 K | – | 150 ± 0.18
322.24 K | – | 155 ± 0.19
323.25 K | – | 160 ± 0.19
324.26 K | – | 165 ± 0.2
325.24 K | – | 170 ± 0.2
326.18 K | – | 175 ± 0.21
327.12 K | – | 180 ± 0.21
328.03 K | – | 185 ± 0.22
328.93 K | – | 190 ± 0.23
329.8 K | – | 195 ± 0.23
330.66 K | – | 200 ± 0.24
331.51 K | – | 205 ± 0.24
332.34 K | – | 210 ± 0.25
333.15 K | – | 215 ± 0.25
333.95 K | – | 220 ± 0.26
334.73 K | – | 225 ± 0.26
335.5 K | – | 230 ± 0.27
336.28 K | – | 235 ± 0.27
337.02 K | – | 240 ± 0.28
337.75 K | – | 245 ± 0.29
338.47 K | – | 250 ± 0.29
339.19 K | – | 255 ± 0.3
339.89 K | – | 260 ± 0.3
340.59 K | – | 265 ± 0.31
341.27 K | – | 270 ± 0.31
341.94 K | – | 275 ± 0.32
342.6 K | – | 280 ± 0.32

Conditions | mass density [kg/m3]
[1], 298.15 K, 101 kPa | 620.91 ± 0.26

Conditions | refractive index
[2] | 1.3547 ± 0.0005

CCCCCCC [heptane] + CCC(=O)OC
[3]
Conditions | mass density [kg/m3]
288.15 K | 688.16 ± 0.25
298.15 K | 679.62 ± 0.25
308.15 K | 670.96 ± 0.25
318.15 K | 662.33 ± 0.25
328.15 K | 653.61 ± 0.25

CCCCCCCCC [nonane] + CCOC(=O)CC
[3]
Conditions | mass density [kg/m3]
288.15 K | 721.65 ± 0.24
298.15 K | 713.85 ± 0.24
308.15 K | 705.96 ± 0.25
318.15 K | 698.06 ± 0.25
328.15 K | 690.17 ± 0.25
